Read-outs that look alike come from different tables or passages of the source.

The assay concerns the target T1, human recombinant mGluR5 receptor (Homo sapiens, UniProt P41594).
T1 construct: expressed in transfected cells; expression induced with doxycycline
The experiment in a line: mGluR5 in vitro functional assay (aequorin cell line, inhibition of glutamate EC80 response). It counts as cell-based. Conditions: aequorin cell line expressing human mGluR5, reference agonist glutamate at EC80, obtained in duplicate, read-out: IC50. The method, then:
B. mGluR5 In Vitro Functional Assay
The functional assay utilized an aequorin cell line expressing human recombinant mGluR5 receptor, an inducible cell line that expresses the human receptor under the control of a promoter induced by doxycycline.
mGluR5 cells in mid-log phase, grown 18 hours prior to the test in antibiotic-free media supplemented with doxycycline (600 ng/mL), were detached by gentle flushing with PBS-EDTA ([…]). The cells were recovered by centrifugation and resuspended in assay buffer (HBSS, […], 3 ug/mL glutamate-pyruvate transaminase, […] MEM sodium pyruvate, 0.1% BSA protease-free). Cells were incubated at room temperature for at least 4 hours with Coelenterazine h (Molecular Probes). The cell suspension (60 uL) containing the test compound was mixed with a solution of reference agonist (30 uL) at its EC80, following an incubation of 3 min. after the first injection. The resulting emission of light was recorded using a Hamamatsu Functional Drug Screening System 6000 (FDSS 6000). To standardize the emission of recorded light (determination of the “100% signal’) across plates and across different experiments, some of the wells contained 100 uM digitonin or a saturating concentration (20 mM) of ATP. Plates also contained the reference agonist (glutamate) at a concentration equivalent to the EC80 obtained during assay validation. Percentages of inhibition were calculated on the basis of the activation induced by the reference agonist at a concentration equal to the EC80. Dose-response data were analyzed with XLFit (IDBS) software using nonlinear regression applied to a sigmoidal dose-response model.

T1 sequence (P41594 21-1212): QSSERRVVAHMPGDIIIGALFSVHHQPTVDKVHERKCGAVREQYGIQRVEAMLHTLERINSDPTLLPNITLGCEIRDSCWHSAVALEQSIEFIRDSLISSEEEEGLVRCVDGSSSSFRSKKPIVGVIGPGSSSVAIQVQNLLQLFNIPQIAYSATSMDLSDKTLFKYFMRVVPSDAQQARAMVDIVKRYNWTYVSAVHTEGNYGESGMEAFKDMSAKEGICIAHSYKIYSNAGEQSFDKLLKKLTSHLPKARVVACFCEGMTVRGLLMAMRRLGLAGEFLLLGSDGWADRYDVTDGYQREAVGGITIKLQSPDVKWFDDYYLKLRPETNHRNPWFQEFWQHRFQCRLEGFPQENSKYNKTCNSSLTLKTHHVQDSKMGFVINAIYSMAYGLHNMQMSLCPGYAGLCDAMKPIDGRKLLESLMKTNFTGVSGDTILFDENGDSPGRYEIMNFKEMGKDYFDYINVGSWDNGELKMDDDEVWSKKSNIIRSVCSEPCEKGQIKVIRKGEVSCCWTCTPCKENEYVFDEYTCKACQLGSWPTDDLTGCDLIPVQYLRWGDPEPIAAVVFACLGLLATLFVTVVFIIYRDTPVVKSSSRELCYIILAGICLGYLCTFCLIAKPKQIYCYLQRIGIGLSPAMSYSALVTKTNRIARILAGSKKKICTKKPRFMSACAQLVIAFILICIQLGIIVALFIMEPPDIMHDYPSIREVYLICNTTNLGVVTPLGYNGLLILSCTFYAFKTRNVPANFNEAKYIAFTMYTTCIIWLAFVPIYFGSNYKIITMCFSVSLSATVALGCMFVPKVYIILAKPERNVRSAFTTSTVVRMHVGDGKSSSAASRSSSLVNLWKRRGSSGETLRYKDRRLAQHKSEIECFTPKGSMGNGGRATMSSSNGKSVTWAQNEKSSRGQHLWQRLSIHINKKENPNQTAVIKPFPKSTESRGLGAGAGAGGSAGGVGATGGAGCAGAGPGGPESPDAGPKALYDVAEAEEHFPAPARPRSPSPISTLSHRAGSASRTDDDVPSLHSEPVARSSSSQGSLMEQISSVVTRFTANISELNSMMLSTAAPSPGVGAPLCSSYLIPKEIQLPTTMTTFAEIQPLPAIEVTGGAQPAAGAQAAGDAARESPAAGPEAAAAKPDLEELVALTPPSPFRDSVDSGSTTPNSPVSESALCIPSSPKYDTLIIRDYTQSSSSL

Usually IC50 stands for the concentration that inhibits the measured activity by half. Regarding `N#Cc1cc(F)ccc1N1CCc2oc(-c3ccccn3)nc2C1` [Compound 165, 5-Fluoro-2-(2-(pyridin-2-yl)-6,7-dihydrooxazolo[4,5-c]pyridin-5(4H)-yl)benzonitrile], the half-maximal inhibitory concentration (IC50) (Table 2) is less than 1 µM.

For `Clc1cccc(N2CCn3nc(-c4ccccn4)nc3C2)c1` [Compound 113, 7-(3-Chlorophenyl)-2-(pyridin-2-yl)-5,6,7,8-tetrahydro-[1,2,4]triazolo[1,5-a]pyrazine], under “Table 1”, the IC50 was less than 1 µM.

In the case of `Clc1cccc(-c2cn3c(n2)CN(c2ccccn2)CC3)c1` [Compound 107, 2-(3-Chlorophenyl)-7-(pyridin-2-yl)-5,6,7,8-tetrahydroimidazol[1,2-a]pyrazine], the IC50 (Table 1) is less than 10 µM.

For the molecule `Fc1ccc(-c2nc3c(o2)CCN(c2ccccn2)C3)cc1` [Compound 48, 2-(4-Fluorophenyl)-5-(pyridin-2-yl)-4,5,6,7-tetrahydrooxazolo[4,5-c]pyridine], the IC50 (Table 1) was less than 10 µM.

In the case of `CC1CCN(c2cc(F)cc(C#N)c2)Cc2nc(-c3ccccn3)oc21` (centres unmarked) [Compound 215, 3-Fluoro-5-(8-methyl-2-(pyridin-2-yl)-7,8-dihydro-4H-oxazolo[4,5-c]azepin-5(6H)-yl)benzonitrile], for the setting “Table 2”, the IC50 is less than 1 µM.

Regarding `Clc1ccc(-c2nc3c(o2)CN(c2ccccn2)CC3)cc1` [Compound 70, 2-(4-Chlorophenyl)-5-(pyridin-2-yl)-4,5,6,7-tetrahydrooxazolo[5,4-c]pyridine], the IC50 (Table 1) is less than 1 µM.

In the case of `Clc1cccc(N2CCc3oc(-c4ccncn4)nc3C2)c1` [Compound 120, 5-(3-chlorophenyl)-2-(pyrimidin-4-yl)-4,5,6,7-tetrahydrooxazolo[4,5-c]pyridine], the IC50 (Table 2) was less than 10 µM.

For `Cc1nc(-c2nc3c(o2)CCCN(c2cc(F)cc(C#N)c2)C3)cs1` [Compound 145, 3-fluoro-5-(2-(2-methylthiazol-4-yl)-7,8-dihydro-4H-oxazolo[4,5-c]azepin-5(6H)-yl)benzonitrile], the IC50 (Table 2) was less than 1 µM.

With `N#Cc1cccc(CN2CCc3nc(-c4ccccn4)oc3C2)c1` [Compound 13], the IC50 (Table 1) is less than 10 µM.

`N#Cc1cc(N2CCc3oc(-c4ccccn4)nc3C2)ccc1F` [Compound 57, 2-Fluoro-5-(2-(pyridin-2-yl)-6,7-dihydrooxazolo[4,5-c]pyridin-5(4H)-yl)benzonitrile]: the IC50 (Table 1) was less than 10 µM.

Take `N#Cc1cccc(N2CCc3nc(-c4ccccn4)oc3C2)n1` [Compound 6, 6-(2-(Pyridin-2-yl)-6,7-dihydrooxazolo[5,4-c]pyridin-5(4H)-yl)picolinonitrile]: the IC50 (Table 1) was less than 10 µM.

With `Fc1ccc([C@@H]2CCc3oc(-c4ccccn4)nc3C2)c(Cl)c1` (single isomer, unassigned) [Compound 224], where the note is “Table 2”, the concentration for half-maximal inhibition (IC50) is less than 1 µM.

Turning to `CC(C)(c1ccccn1)c1nc2c(o1)CCN(c1cc(F)cc(C#N)c1)C2` [Compound 195, 3-Fluoro-5-(2-(2-(pyridin-2-yl)propan-2-yl)-6,7-dihydrooxazolo[4,5-c]pyridin-5(4H)-yl)benzonitrile], the IC50 (Table 2) is greater than 10 µM.

In the case of `c1ccc(-c2nc3c(o2)CN(c2cccnc2)CC3)nc1` [Compound 5, 2-(Pyridin-2-yl)-5-(pyridin-3-yl)-4,5,6,7-tetrahydrooxazolo[5,4-c]pyridine], the IC50 (Table 1) is greater than 10 µM.

For `N#Cc1cc(F)cc(C2CCc3oc(-c4ccccn4)nc3C2)c1` (centres unmarked) [Compound 222, 3-Fluoro-5-(2-(pyridin-2-yl)-4,5,6,7-tetrahydrobenzo[d]oxazol-5-yl)benzonitrile], under “Table 2”, the IC50 was less than 1 µM.

With `Cc1nc(-c2nc3c(o2)CCN(c2ccccc2Cl)C3)cs1` [Compound 172, 5-(2-Chlorophenyl)-2-(2-methylthiazol-4-yl)-4,5,6,7-tetrahydrooxazolo[4,5-c]pyridine], the IC50 (Table 2) is less than 1 µM.

On to `Cc1cccc(-c2nc3c(o2)CCN(c2ccccn2)C3)c1` [Compound 60, 5-(Pyridin-2-yl)-2-m-tolyl-4,5,6,7-tetrahydrooxazolo-[4,5-c]pyridine], for which the half-inhibitory concentration (IC50) (Table 1) is less than 1 µM.

For the molecule `N#Cc1cc(F)cc(N2CCn3nc(-c4ccccn4)nc3C2)c1` [Compound 112, 3-Fluoro-5-(2-(pyridin-2-yl)-5,6-dihydro-[1,2,4]triazolo[1,5-a]pyrazin-7(8H)-yl)benzonitrile], where the note is “Table 1”, the IC50 is less than 1 µM.

Consider `N#Cc1cccc(CN2CCc3oc(-c4ccccn4)nc3C2)c1` [Compound 34], for which the IC50 (Table 1) is less than 1 µM.

Take `N#Cc1ccnc(N2CCc3oc(-c4ccccn4)nc3C2)c1` [Compound 24, 2-(2-(Pyridin-2-yl)-6,7-dihydrooxazolo[4,5-c]pyridin-5(4H)-yl)isonicotinonitrile]: the IC50 (Table 1) is less than 1 µM.

Consider `FC(F)(F)c1ccccc1N1CCc2oc(-c3ccccn3)nc2C1` [Compound 182, 2-(Pyridin-2-yl)-5-(2-(trifluoromethyl)phenyl)-4,5,6,7-tetrahydrooxazolo[4,5-c]pyridine], for which the IC50 (Table 2) is less than 1 µM.

`N#Cc1cc(F)cc(CN2CCc3oc(-c4ccccn4)nc3C2)c1` [Compound 35, 3-Fluoro-5-((2-(pyridin-2-yl)-6,7-dihydrooxazolo-[4,5-c]pyridin-5(4H)-yl)methyl)benzonitrile]: where the note is “Table 1”, the IC50 is less than 10 µM.

As for `N#Cc1cc(F)cc(N2CCCc3nc(-c4ccc(F)cn4)oc3C2)c1` [Compound 96, 3-Fluoro-5-(2-(5-fluoropyridin-2-yl)-7,8-dihydro-4H-oxazolo[5,4-c]azepin-5(6H)-yl)benzonitrile], the IC50 (Table 1) was less than 1 µM.

Turning to `Fc1ccc(F)c(N2CCc3oc(-c4ccccn4)nc3C2)c1` [Compound 169, 5-(2,5-Difluorophenyl)-2-(pyridin-2-yl)-4,5,6,7-tetrahydrooxazolo[4,5-c]pyridine], under “Table 2”, the half-maximal inhibitory concentration (IC50) is less than 1 µM.

Turning to `COc1c(F)cc(N2CCCc3oc(-c4ccccn4)nc3C2)cc1C#N` [Compound 217, 3-Fluoro-2-methoxy-5-(2-(pyridin-2-yl)-7,8-dihydro-4H-oxazolo[4,5-c]azepin-5(6H)-yl)benzonitrile], the IC50 (Table 2) was less than 1 µM.

For `Fc1cncc(N2CCCc3oc(-c4ccccn4)nc3C2)c1` [Compound 104, 5-(5-Fluoropyridin-3-yl)-2-(pyridin-2-yl)-5,6,7,8-tetrahydro-4H-oxazolo[4,5-c]azepine], the IC50 (Table 1) is less than 1 µM.

As for `Fc1cc(Cl)cc(N2CCCc3oc(-c4ncccn4)nc3C2)c1` [Compound 202, 5-(3-Chloro-5-fluorophenyl)-2-(pyrimidin-2-yl)-5,6,7,8-tetrahydro-4H-oxazolo[4,5-c]azepine], the IC50 (Table 2) is less than 1 µM.

Consider `N#Cc1cccc(-c2nc3c(o2)CN(c2ccccn2)CC3)c1` [Compound 65, 3-(5-(Pyridin-2-yl)-4,5,6,7-tetrahydrooxazolo[5,4-c]pyridin-2-yl)benzonitrile], for which, where the note is “Table 1”, the IC50 was greater than 10 µM.

`N#Cc1cc(N2CCCc3oc(-c4ccccn4)nc3C2)cc(F)c1O` [Compound 218, 3-Fluoro-2-hydroxy-5-(2-(pyridin-2-yl)-7,8-dihydro-4H-oxazolo[4,5-c]azepin-5(6H)-yl)benzonitrile]: the IC50 (Table 2) is less than 10 µM.

Take `N#Cc1cc(F)cc(N2CCc3oc(Cc4ccccc4)nc3C2)c1` [Compound 155, 3-(2-Benzyl-6,7-dihydrooxazolo[4,5-c]pyridin-5(4H)-yl)-5-fluorobenzonitrile]: the IC50 (Table 2) is greater than 10 µM.

With `O=C(c1ccc(F)cc1)N1CCc2oc(-c3ccc(F)cc3)nc2C1` [Compound 54, (4-Fluorophenyl)(2-(4-fluorophenyl)-6,7-dihydrooxazolo[4,5-c]pyridin-5(4H)-yl)methanone], for the setting “Table 1”, the half-maximal inhibitory concentration (IC50) was less than 10 µM.

In the case of `N#Cc1cccc(N2CCCc3nc(-c4ccccn4)oc3C2)c1` [Compound 93, 3-(2-(Pyridin-2-yl)-7,8-dihydro-4H-oxazolo[5,4-c]azepin-5(6H)-yl)benzonitrile], for the setting “Table 1”, the IC50 was less than 1 µM.

Turning to `N#Cc1cc(N2CCc3oc(-c4ccccn4)nc3C2)ccn1` [Compound 26, 4-(2-(Pyridin-2-yl)-6,7-dihydrooxazolo[4,5-c]pyridin-5(4H)-yl)picolinonitrile], the IC50 (Table 1) was less than 1 µM.

Consider `Clc1ccccc1N1CCc2oc(-c3ccncn3)nc2C1` [Compound 168, 5-(2-Chlorophenyl)-2-(pyrimidin-4-yl)-4,5,6,7-tetrahydrooxazolo[4,5-c]pyridine], for which the IC50 (Table 2) was less than 10 µM.

Turning to `N#Cc1cccc(-c2nc3c(o2)CCN(c2ncccc2C#N)C3)c1` [Compound 63, 2-(2-(3-Cyanophenyl)-6,7-dihydrooxazolo[4,5-c]pyridin-5(4H)-yl)nicotinonitrile], under “Table 1”, the IC50 was less than 10 µM.

As to `Clc1cccnc1N1CCc2oc(-c3ccccn3)nc2C1` [Compound 187, 5-(3-Chloropyridin-2-yl)-2-(pyridin-2-yl)-4,5,6,7-tetrahydrooxazolo[4,5-c]pyridine], where the note is “Table 2”, the IC50 is less than 1 µM.

Take `FC(F)(F)c1ccc(-c2nc3c(o2)CCN(c2cnccn2)C3)cc1` [Compound 45, 5-(Pyrazin-2-yl)-2-(4-(trifluoromethyl)phenyl)-4,5,6,7-tetrahydrooxazolo[4,5-c]pyridine]: the IC50 (Table 1) is greater than 10 µM.

For `c1ccc(-c2nc3c(o2)CCN(c2cnccn2)C3)cc1` [Compound 49, 2-Phenyl-5-(pyrazin-2-yl)-4,5,6,7-tetrahydrooxazolo[4,5-c]pyridine], for the setting “Table 1”, the IC50 was less than 10 µM.

Values taken from US20120029190A1, “COMPOUNDS FOR TREATING DISORDERS MEDIATED BY METABOTROPIC GLUTAMATE RECEPTOR 5, AND METHODS OF USE THEREOF” (priority 2009, published 2012).
